The subject of one test is LDL. Put plainly: LDL peroxidation inhibitory effect (copper sulfate, malondialdehyde by thiobarbituric acid method). The format is biochemical, rabbit. To be noted: concentration 10^-5M; 37°C, 24 hours; malondialdehyde production inhibitory ratio. The protocol:
LDL Peroxidation Inhibitory Effect
Male Japanese white rabbits weighing 2-2.5 kg were bred on 100 g per day of a high cholesterol feed [added with cholesterol (1%), Clea Japan, Inc.] for 4 weeks. The blood was taken from carotid and plasma was obtained. Then, LDL was fractionated from the plasma by ultracentrifugation, dialyzed for one day and preserved at 4° C. LDL (400 μg) and aqueous copper sulfate solution (final concentration 5 μM) were added to bufferized Ham F-10 medium (2 ml, GIBCO, USA). DMSO or a solution (20 μl) of test compound dissolved in DMSO was added and the mixture was incubated at 37° C. for 24 hours. After the completion of the incubation, LDL peroxide in medium was allowed to develop color by thiobarbituric acid method and assayed as malondialdehyde. The activity of the test compound was expressed as malondialdehyde production inhibitory ratio (%), namely, the proportion of inhibition of production of malondialdehyde as compared to control.

A further test concerns plasma. Put plainly: Plasma lipoperoxidation inhibitory effect (copper sulfate, malondialdehyde by thiobarbituric acid method). The format is biochemical, rabbit. To be noted: concentration 10^-5M; 37°C, 3 hours; malondialdehyde production inhibitory ratio. The protocol:
Plasma Lipoperoxidation Inhibitory Effect
The blood was taken from male Japanese white rabbits weighing 2-2.5 kg under anesthesia and heparinized plasma was separated by a conventional method. To the plasma (2.0 ml) was added DMSO or a solution (20 μl, final concentration 10^−5 M) of test compound dissolved in DMSO, and aqueous copper sulfate solution (final concentration 5 mM) was added immediately thereafter. The mixture was incubated at 37° C. for 3 hours. After the completion of the incubation, 20% trichloroacetic acid was added to stop the reaction. Then, the mixture was centrifuged at 4° C., 4,500 rpm for 15 minutes. The lipoperoxide in the supernatant thus obtained was assayed as malondialdehyde upon color development by thiobarbituric acid method. The activity of the test compound was expressed as malondialdehyde production inhibitory ratio (%), namely, the proportion of inhibition of production of malondialdehyde as compared to control.

The subject of a further test is ACAT. The test is described as follows: ACAT inhibitory activity (small intestine mucosa microsomes, [1-14C]-oleoyl CoA, cholesteryl oleate production). The format is biochemical, rabbit. Conditions: concentration 10^-5M; inhibition of cholesteryl oleate production vs control. The protocol: A high cholesterol feed [a feed added with cholesterol (1%), Clea Japan, Inc.] was fed to male Japanese white rabbits weighing 2-2.5 kg at 100 g per day and the rabbits were bred for 4 weeks. The rabbits were killed by bleeding under anesthesia and small intestine was removed. The mucous membrane of small intestine was peeled, collected and homogenated. The homogenate was centrifuged at 4° C. and 10,000 rpm for 15 min. The obtained supernatant was further centrifuged at 4° C. and 41,000 rpm for 30 minutes to give microsomal fractions. Using this microsomal suspension as an enzyme sample, dimethyl sulfoxide (DMSO, 5 μl) or a test compound dissolved in DMSO (test compound solution, 5 μl), and a reaction substrate [1-^14C]-oleoyl CoA were added to a reaction buffer. After incubation at 37° C. for 5 minutes, a chloroform-methanol mixture was added to stop the reaction. Water was added thereto and mixed, and chloroform layer was separated. The solvent was evaporated to dryness, and the residue was dissolved in hexane. The mixture was subjected to thin layer chromatography using a silica gel plate. The spots of cholesteryl oleate on the silica gel plate were scraped, and quantitatively assayed on a liquid scintillation counter. The ACAT inhibitory activity of the test compound was expressed as a proportion (%) of inhibition of cholesteryl oleate, namely, the proportion of inhibition of cholesteryl oleate production as compared to control.

Another test deals with Male Wister rats. Put plainly: Serum total cholesterol reducing effect in rats on high cholesterol feed. The format is in vivo. To be noted: oral, once a day for 3 days, rat. On the procedure: Serum Total Cholesterol Reducing Effect
Male Wister rats weighing 180-200 g were bred under free access to a high cholesterol feed [added with cholesterol (1%), cholic acid (0.5%) and coconut oil (10%), Clea Japan, Inc.] for 3 days, during which period a test compound (10-100 mg/kg) suspended in 5% gum arabic solution was forcibly administered once a day orally for 3 days. Only 5% gum arabic solution was administered to control animals. After final administration, the test animals were fasted for 5 hours and the blood was taken. The serum total cholesterol level was determined using a commercially available assay kit (cholesterol-E-Test Wako, Wako Pure Chemical Industries, Ltd.). The activity of the test compound was expressed as a proportion (%) of reduction of serum total cholesterol level, namely, the proportion of reduction of serum total cholesterol as compared to control.

Marks after values point to notes of the source that are not given here.

On to `CCCCCCN1CCc2c(C)cc(C)c(NC(=O)C(C)(C)CO)c21` [Example 28], for which the “Result of Exp. Ex. 3: LDL peroxidation inhibition” value in the test with LDL came out at 92.2%. In addition, the “Result of Exp. Ex. 4: plasma lipoperoxidation inhibition” value with plasma was 91.1%. Besides, the “Result of Exp. Ex. 1: ACAT inhibition” value in the test on ACAT was 79.4 ** %. In the test with Male Wister rats (dose 100 mg/kg/day), the “Result of Exp. Ex. 2: reduction of serum total cholesterol” value was 20.8 *** %.

Turning to `CCCCCCN1CCc2c(C)cc(C)c(NC(=O)C(C)(C)COC(C)=O)c21` [Example 29], the “Result of Exp. Ex. 3: LDL peroxidation inhibition” value with LDL is on record as 91.9%. Besides, the “Result of Exp. Ex. 4: plasma lipoperoxidation inhibition” value in the test with plasma was 91.1%. For the same compound, the “Result of Exp. Ex. 1: ACAT inhibition” value in the test with ACAT is 86.6 ** %. The “Result of Exp. Ex. 2: reduction of serum total cholesterol” value in the test with Male Wister rats (dose 30 mg/kg/day) was 6.9 ** %.

Consider `Cc1cc(C)c(NC(=O)C(C)(C)C)c2c1CCN2CCC(C)C` [Example 31], for which the “Result of Exp. Ex. 3: LDL peroxidation inhibition” value in the test with LDL came out at 90.3%. Moreover, the “Result of Exp. Ex. 4: plasma lipoperoxidation inhibition” value in the test on plasma was determined as 90.8%. Moreover, the “Result of Exp. Ex. 1: ACAT inhibition” value in the test with ACAT is recorded as 93.8 ** %. Further, in the test with Male Wister rats (dose 30 mg/kg/day), the “Result of Exp. Ex. 2: reduction of serum total cholesterol” value is on record as 49.0 ** %.

With `Cc1cc(C)c(NC(=O)C(C)(C)C)c2c1CCN2CC(C)C` [Example 32], the “Result of Exp. Ex. 3: LDL peroxidation inhibition” value with LDL is given as 85.3%. Moreover, the “Result of Exp. Ex. 4: plasma lipoperoxidation inhibition” value in the test on plasma was found to be 89.1%. The “Result of Exp. Ex. 1: ACAT inhibition” value in the test with ACAT was 93.9 ** %. Besides, the “Result of Exp. Ex. 2: reduction of serum total cholesterol” value in the test with Male Wister rats (dose 30 mg/kg/day) is on record as 57.4 ** %.

For the compound `CCCCCCN1CCc2c(C)cc(C)c(NC(=O)C(C)(C)COCC)c21` [Example 34], in the test on LDL, the “Result of Exp. Ex. 3: LDL peroxidation inhibition” value stood at 82.9%. Further, the “Result of Exp. Ex. 4: plasma lipoperoxidation inhibition” value in the test on plasma was 89.8%. Moreover, the “Result of Exp. Ex. 1: ACAT inhibition” value in the test with ACAT is reported as 91.0 ** %. Besides, in the test on Male Wister rats (dose 30 mg/kg/day), the “Result of Exp. Ex. 2: reduction of serum total cholesterol” value is given as 50.2 ** %.

On to `CC(C)(Sc1cc(C(C)(C)C)c(O)c(C(C)(C)C)c1)Sc1cc(C(C)(C)C)c(O)c(C(C)(C)C)c1` [Probucol, 4,4′-isopropylidenedithiobis(2,6-di-t-butylphenol), reference compound], for which the “Result of Exp. Ex. 3: LDL peroxidation inhibition” value with LDL is given as 89.4%. Also, the “Result of Exp. Ex. 4: plasma lipoperoxidation inhibition” value in the test with plasma came out at 87.5%. Moreover, the “Result of Exp. Ex. 1: ACAT inhibition” value in the test on ACAT is 3.4 ** %. Further, the “Result of Exp. Ex. 2: reduction of serum total cholesterol” value with Male Wister rats (dose 10 mg/kg/day) is reported as 7.3 * %.
